Laboratory results: article PMC4685943 (ACS Chemical Biology, 2015)

Experiments:
NCI-H2286 and HCC-366 = assay: Cell proliferation assays in DDR2 mutated cell lines; assay type: cell-based; conditions: NCI-H2286 and HCC-366, 5 days, single agent
DDR2 = biological target: T1, DDR2 (Homo sapiens, UniProt Q16832); assay: DDR2 phosphorylation, IP/Western blot in 293T cells expressing wild type DDR2; assay type: cell-based; conditions: 293T cells expressing wild type DDR2, IP anti-DDR2 / blot 4G10
T1 sequence (Q16832 22-855): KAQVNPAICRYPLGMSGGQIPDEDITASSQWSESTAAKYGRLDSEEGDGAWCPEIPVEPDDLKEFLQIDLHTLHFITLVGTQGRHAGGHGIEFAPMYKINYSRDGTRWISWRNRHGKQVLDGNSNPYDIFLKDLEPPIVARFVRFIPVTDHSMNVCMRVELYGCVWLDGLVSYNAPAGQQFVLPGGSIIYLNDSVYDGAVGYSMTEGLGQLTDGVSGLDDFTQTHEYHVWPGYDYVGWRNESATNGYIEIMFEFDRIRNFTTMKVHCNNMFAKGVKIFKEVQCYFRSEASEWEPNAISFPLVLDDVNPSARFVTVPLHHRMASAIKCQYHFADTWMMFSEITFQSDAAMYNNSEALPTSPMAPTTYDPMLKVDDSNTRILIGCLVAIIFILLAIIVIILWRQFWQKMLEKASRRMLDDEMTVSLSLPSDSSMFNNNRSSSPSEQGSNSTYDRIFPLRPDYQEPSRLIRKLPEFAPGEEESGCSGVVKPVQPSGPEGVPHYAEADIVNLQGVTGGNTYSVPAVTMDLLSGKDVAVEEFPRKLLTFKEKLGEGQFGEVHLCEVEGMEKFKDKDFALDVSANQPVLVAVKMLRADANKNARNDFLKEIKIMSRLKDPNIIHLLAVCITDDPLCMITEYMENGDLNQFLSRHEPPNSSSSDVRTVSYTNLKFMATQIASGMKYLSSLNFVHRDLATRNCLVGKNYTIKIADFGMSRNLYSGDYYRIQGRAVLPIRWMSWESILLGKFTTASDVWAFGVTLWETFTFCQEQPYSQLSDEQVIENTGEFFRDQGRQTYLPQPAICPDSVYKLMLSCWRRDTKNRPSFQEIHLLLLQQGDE

SMILES	antiproliferative potency in DDR2 mutated cell lines (NCI-H2286 and HCC-366)	effect on p-DDR2 (DDR2)
CN1CCN(CCOc2cc(OC3CCOCC3)c3c(Nc4c(Cl)ccc5c4OCO5)ncnc3c2)CC1 [Saracatinib]	greater inhibition of cell proliferation as compared to compound 1	
Cc1nc(Nc2ncc(C(=O)Nc3c(C)cccc3Cl)s2)cc(N2CCN(CCO)CC2)n1 [Dasatinib]		potent inhibition
